# Measured values published in PubChem BioAssay (NCI).
#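 In this assay, cells in 96-well plates receive the compound at five concentrations for 48 hours. Endpoints are linearly interpolated between the surrounding concentrations. GI50 is the concentration that inhibits growth by half. TGI: total growth inhibition.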
# Columns and labels:
# Test in all cases: DTP human tumour cell line panel, 48 h
# [1] = system: 786-0 renal
# [2] = system: A549 NSCLC
# [3] = system: ACHN renal
# [4] = system: BT-549 breast
# [5] = system: CAKI-1 renal
# [6] = system: CCRF-CEM leukemia
# [7] = system: COLO 205 colon
# [8] = system: DU-145 prostate
# [9] = system: EKVX NSCLC
# [10] = system: HCC-2998 colon
# [11] = system: HCT-116 colon
# [12] = system: HCT-15 colon
# [13] = system: HOP-62 NSCLC
# [14] = system: HOP-92 NSCLC
# [15] = system: HS 578T breast
# [16] = system: HT29 colon
# [17] = system: IGROV1 ovarian
# [18] = system: K-562 leukemia
# [19] = system: KM12 colon
# [20] = system: LOX IMVI melanoma
# [21] = system: MALME-3M melanoma
# [22] = system: MCF7 breast
# [23] = system: MDA-MB-231 breast
# [24] = system: MDA-MB-435
# [25] = system: MOLT-4 leukemia
# [26] = system: NCI-H226 lung
# [27] = system: NCI-H460 lung
# [28] = system: NCI-H522 lung
# [29] = system: NCI/ADR-RES ovarian
# [30] = system: OVCAR-3 ovarian
# [31] = system: OVCAR-4 ovarian
# [32] = system: OVCAR-5 ovarian
# [33] = system: OVCAR-8 ovarian
# [34] = system: PC-3 prostate
# [35] = system: RPMI-8226 leukemia
# [36] = system: RXF 393 renal
# [37] = system: SF-268 CNS
# [38] = system: SF-295 CNS
# [39] = system: SF-539 CNS
# [40] = system: SK-MEL-2 melanoma
# [41] = system: SK-MEL-28 melanoma
# [42] = system: SK-MEL-5 melanoma
# [43] = system: SK-OV-3 ovarian
# [44] = system: SN12C renal
# [45] = system: SNB-19 CNS
# [46] = system: SNB-75 CNS
# [47] = system: SR leukemia
# [48] = system: SW-620 colon
# [49] = system: T-47D breast
# [50] = system: TK-10 renal
# [51] = system: U251 CNS
# [52] = system: UACC-257 melanoma
# [53] = system: UACC-62 melanoma
# [54] = system: UO-31 renal
# [55] = system: A498 renal
# [56] = system: HL-60(TB) leukemia
# [57] = system: M14 melanoma
# [58] = system: NCI-H23 lung
structure (smiles),measurement,setting,value
COc1cc2ccnc3c2c(c1OC)-c1ccc(=O)ccc1-3,GI50,[1],22.4 µM
same,TGI,[1],> 100 µM
same,GI50,[2],18.2 µM
same,TGI,[2],55.4 µM
same,GI50,[3],19.3 µM
same,TGI,[3],44.6 µM
same,GI50,[4],32.1 µM
same,TGI,[4],> 100 µM
same,GI50,[5],16.5 µM
same,TGI,[5],39.5 µM
same,GI50,[6],13.7 µM
same,TGI,[6],41.7 µM
same,GI50,[7],35.2 µM
same,TGI,[7],97.8 µM
same,GI50,[8],28.8 µM
same,TGI,[8],> 100 µM
same,GI50,[9],29.8 µM
same,TGI,[9],99 µM
same,GI50,[10],32.1 µM
same,TGI,[10],> 100 µM
same,GI50,[11],5.25 µM
same,TGI,[11],34.5 µM
same,GI50,[12],22.5 µM
same,TGI,[12],77.1 µM
same,GI50,[13],32.5 µM
same,TGI,[13],> 100 µM
same,GI50,[14],14.4 µM
same,TGI,[14],80.4 µM
same,GI50,[15],36.6 µM
same,TGI,[15],> 100 µM
same,GI50,[16],14.8 µM
same,TGI,[16],68.9 µM
same,GI50,[17],47 µM
same,TGI,[17],> 100 µM
same,GI50,[18],14.5 µM
same,TGI,[18],35.5 µM
same,GI50,[19],43.6 µM
same,TGI,[19],> 100 µM
same,GI50,[20],21 µM
same,TGI,[20],46.5 µM
same,GI50,[21],37.9 µM
same,TGI,[21],75.5 µM
same,GI50,[22],14.9 µM
same,TGI,[22],> 100 µM
same,GI50,[23],26.9 µM
same,TGI,[23],> 100 µM
same,GI50,[24],31.5 µM
same,TGI,[24],90.6 µM
same,GI50,[25],3.6 µM
same,TGI,[25],18.7 µM
same,GI50,[26],17.7 µM
same,TGI,[26],45.8 µM
same,GI50,[27],20.7 µM
same,TGI,[27],> 100 µM
same,GI50,[28],23.4 µM
same,TGI,[28],71.3 µM
same,GI50,[29],17.4 µM
same,TGI,[29],57.6 µM
same,GI50,[30],21.8 µM
same,TGI,[30],56.2 µM
same,GI50,[31],21.7 µM
same,TGI,[31],74.7 µM
same,GI50,[32],51.7 µM
same,TGI,[32],> 100 µM
same,GI50,[33],13.4 µM
same,TGI,[33],58.8 µM
same,GI50,[34],29.7 µM
same,TGI,[34],> 100 µM
same,GI50,[35],18.4 µM
same,TGI,[35],51.9 µM
same,GI50,[36],18.7 µM
same,TGI,[36],77 µM
same,GI50,[37],39.1 µM
same,TGI,[37],> 100 µM
same,GI50,[38],23.2 µM
same,TGI,[38],67.8 µM
same,GI50,[39],15.9 µM
same,TGI,[39],77.3 µM
same,GI50,[40],52.6 µM
same,TGI,[40],> 100 µM
same,GI50,[41],23.7 µM
same,TGI,[41],66.9 µM
same,GI50,[42],17.1 µM
same,TGI,[42],47.9 µM
same,GI50,[43],41.5 µM
same,TGI,[43],> 100 µM
same,GI50,[44],31 µM
same,TGI,[44],> 100 µM
same,GI50,[45],55.3 µM
same,TGI,[45],> 100 µM
same,GI50,[46],25.9 µM
same,TGI,[46],80.1 µM
same,GI50,[47],2.95 µM
same,TGI,[47],21.4 µM
same,GI50,[48],13.9 µM
same,TGI,[48],> 100 µM
same,GI50,[49],27.6 µM
same,TGI,[49],65.5 µM
same,GI50,[50],35.1 µM
same,TGI,[50],83.5 µM
same,GI50,[51],27.6 µM
same,TGI,[51],96.9 µM
same,GI50,[52],25.4 µM
same,TGI,[52],63.5 µM
same,GI50,[53],14.6 µM
same,TGI,[53],34 µM
same,GI50,[54],30 µM
same,TGI,[54],> 100 µM
O=C1Nc2cc([N+](=O)[O-])ccc2C(=O)N2CCC[C@@H]12,TGI,[1],> 100 µM
same,TGI,[55],> 100 µM
same,TGI,[2],> 100 µM
same,TGI,[3],> 100 µM
same,TGI,[4],> 100 µM
same,TGI,[5],> 100 µM
same,TGI,[6],> 100 µM
same,TGI,[7],> 100 µM
same,TGI,[8],> 100 µM
same,TGI,[9],> 100 µM
same,TGI,[10],> 100 µM
same,TGI,[11],> 100 µM
same,TGI,[12],> 100 µM
same,TGI,[56],> 100 µM
same,TGI,[13],> 100 µM
same,TGI,[14],> 100 µM
same,TGI,[15],> 100 µM
same,TGI,[16],> 100 µM
same,TGI,[17],> 100 µM
same,TGI,[18],> 100 µM
same,TGI,[19],> 100 µM
same,TGI,[20],> 100 µM
same,TGI,[57],> 100 µM
same,TGI,[22],> 100 µM
same,TGI,[23],> 100 µM
same,TGI,[24],> 100 µM
same,TGI,[25],> 100 µM
same,TGI,[26],> 100 µM
same,TGI,[58],> 100 µM
same,TGI,[27],> 100 µM
same,TGI,[28],> 100 µM
same,TGI,[29],> 100 µM
same,TGI,[30],> 100 µM
same,TGI,[31],> 100 µM
same,TGI,[32],> 100 µM
same,TGI,[33],> 100 µM
same,TGI,[34],> 100 µM
same,TGI,[35],> 100 µM
same,TGI,[36],> 100 µM
same,TGI,[37],> 100 µM
same,TGI,[38],> 100 µM
same,TGI,[39],> 100 µM
same,TGI,[40],> 100 µM
same,TGI,[41],> 100 µM
same,TGI,[42],> 100 µM
same,TGI,[43],> 100 µM
same,TGI,[44],> 100 µM
same,TGI,[45],> 100 µM
same,TGI,[46],> 100 µM
same,TGI,[47],> 100 µM
same,TGI,[48],> 100 µM
same,TGI,[49],> 100 µM
same,TGI,[50],> 100 µM
same,TGI,[51],> 100 µM
same,TGI,[52],> 100 µM
same,TGI,[53],> 100 µM
same,TGI,[54],> 100 µM
